The values that follow come from patent US10350170B2, “Solid preparation” (Takeda Pharmaceutical Company Limited, priority 2015, dated 2019).

This data set in a line: Stability of compound A alone in a solid state to temperature, humidity. Type of data set: physicochemical.

As to `CONC(=O)Nc1ccc(-c2sc3c(c2CN(C)C)c(=O)n(-c2ccc(OC)nn2)c(=O)n3Cc2c(F)cccc2F)cc1` [compound A, N-(4-(1-(2,6-difluorobenzyl)-5-((dimethylamino)methyl)-3-(6-methoxy-3-pyridazinyl)-2,4-dioxo-1,2,3,4-tetrahydrothieno[2,3-d]pyrimidin-6-yl)phenyl)-N′-methoxyurea], the “stability to temperature, humidity and the like” value was “stable”.
